By MIC is commonly meant the least concentration at which growth counts as inhibited. The low end stands for greater potency, the high end for weaker potency.

Converted amounts (≈) assume the structure as drawn. Square brackets hold non-standard residues; d marks the D form. Primed or numbered codes have the meaning given here. Side chains are listed from the residue outwards. Ends that are not written are not given here. triazole = not defined here; Hpg′ = not defined here

The subject of test [1] is Enterococcus faecium LMG16003 (VRE). Type of test: cell-based. Conditions: broth microdilution, inoculum ~5 × 10^5 CFU/mL, overnight 37 °C, HPLC-purified peptides. As to the method: (§1) The minimal inhibitory concentration (MIC) values were assessed through broth microdilution following standard guidelines. The inoculum was adjusted to around 5 × 10^5 CFU/mL. MIC was characterized as the lowest concentration of the antimicrobial substance at which no visible growth was observed following overnight incubation at 37 °C.
A general note: Dilution methods test growth across graded concentrations, often in twofold steps.

Test [2] relates to Staphylococcus aureus LMG15975 (MRSA). It counts as cell-based. The settings on record: broth microdilution, inoculum ~5 × 10^5 CFU/mL, overnight 37 °C, HPLC-purified peptides. How it is done:
as §1

In test [3] the test system is Listeria monocytogenes LMG10470. The experiment in a line: MIC, broth microdilution. Type of test: cell-based. The settings on record: inoculum ~5 × 10^5 CFU/mL, overnight 37 °C, HPLC-purified peptides. How it is done:
as §1

The subject of the next test is Bacillus cereus CH-85. The experiment in a line: MIC, broth microdilution. The settings on record: inoculum ~5 × 10^5 CFU/mL, overnight 37 °C, HPLC-purified peptides. It counts as cell-based. How it is done: as §1
The subject of test [4] is E. faecium. It counts as cell-based, Enterococcus faecium. Conditions: for decrease in zone of inhibition (activity) on Hpg labeling: 30 μL of 1 mg/mL in 8 mm wells, zone area minus well area, 3 experiments. As to the method: 2 Production of single-Met containing nisin and nisin variants labeled with Met, Hpg or Hpg–Glc and their antibacterial activity against E. faecium strain. (a) Quantification of fully modified nisin variants labeled with Met or Hpg using HPLC as per Schmitt et al. (b) Evaluation of the antimicrobial efficacy of nisin and its variants against E. faecium through agar well diffusion assay. Each trial was repeated 3 times. The relative activity was determined by measuring inhibition zone diameters in millimeters, calculated as the area of the zone (πr ^2) minus the area of the well (πr ^2) in millimeters.
An overnight culture was added at a concentration of 0.1% (v/v) to molten GM17 agar (for E. faecium and E. faecalis) or LB agar (for S. aureus and B. cereus) at 45 °C, and then 30 mL of this mixture was poured onto a plate. After the agar solidified, wells of 8 mm were created by punching in the agar and filled with 30 μL of a 1 mg/mL lantibiotic solution. If needed, lantibiotics were activated by adding 3 μL of 1 mg/mL NisP directly to the well. The quantity of nisin was determined using HPLC as previously outlined. The agar plate was then incubated at 37 °C overnight, and the zones of inhibition were measured. The presented data results from three independent experiments. Zone diameters were measured in millimeters and recorded as the area of the zone (πr ^2) minus the area of the well (πr ^2) in millimeters.

For test [5], the system named is various Gram-positive bacteria. The settings on record: ref citation numbers not given; cited from earlier work. An excerpt: Recently, we introduced the Met analog Aha at position 17 and used click chemistry to ...
The test system of test [6] is E. faecium. As to the kind of experiment: Time-kill assay. It counts as cell-based, Enterococcus faecium. Conditions: 5-fold MIC against E. faecium. How it is done:
The antimicrobial effectiveness of nisin, nisin(1–22), and nisin(M21V)–Gal was assessed using a method previously described by Guo et al. , In summary, an overnight culture of E. faecium was diluted 50 times in GM17 medium and cultured at 37 °C. The bacteria were grown until reaching an optical density at 600 nm (OD600) of 0.5, and then the cell concentration was adjusted to 5 × 10^5 colony-forming units per milliliter (CFU/mL). Following this, the bacteria were exposed to a 5-fold MIC of each peptide. An untreated cell suspension was used as a control. At specific time intervals, 50 μL samples were taken, and both undiluted and 10-fold serially diluted suspensions were plated on GM17 agar. The plates were then incubated overnight at 37 °C, and the resulting colonies were counted and expressed as CFU/mL. Each experiment was conducted in triplicate.

Setting [7] is: compared to the same peptide labeled with Met.

For `C#CCC[C@H](NC(=O)[C@H](CC(N)=O)NC(=O)[C@@H]1CS[C@@H](C)[C@@H](NC(=O)[C@H](CCCCN)NC(=O)[C@@H]2CS[C@@H](C)[C@@H](NC(=O)[C@@H]3CSC[C@@H](NC(=O)/C(=C/C)NC(=O)[C@@H](N)[C@@H](C)CC)C(=O)N[C@@H]([C@@H](C)CC)C(=O)NC(=C)C(=O)N[C@@H](CC(C)C)C(=O)N3)C(=O)N3CCC[C@H]3C(=O)NCC(=O)N2)C(=O)NCC(=O)N[C@@H](C)C(=O)N[C@@H](CC(C)C)C(=O)N[C@@H]([C@@H](C)CC)C(=O)NCC(=O)N1)C(=O)N[C@@H](CCCCN)C(=O)N[C@H]1C(=O)N[C@@H](C)C(=O)N[C@H]2C(=O)N[C@@H](CS[C@H]1C)C(=O)N[C@@H](Cc1c[nH]cn1)C(=O)N[C@H](C(=O)N[C@@H](CO)C(=O)N[C@H](C(=O)N[C@@H](Cc1c[nH]cn1)C(=O)N[C@H](C(=O)NC(=C)C(=O)N[C@@H](CCCCN)C(=O)O)C(C)C)[C@@H](C)CC)CS[C@H]2C` [nisin(M17I)(Hpg)], the MIC stood at 15.2 µg/mL (≈ 4.59 µM) in test [1], 30.4 µg/mL (≈ 9.17 µM) in test [2], 121.5 µg/mL (≈ 36.7 µM) in test [3] and 121.5 µg/mL (≈ 36.7 µM) in the test with Bacillus cereus CH-85. Besides, the “decrease in zone of inhibition (activity) on Hpg labeling” value (shortened to “decrease in zone of inhibition”) with E. faecium [4] (setting [7]) is on record as 30%.
With “M17W: literature nisin mutant with M17W mutation (ITSISLCTPGCKTGALWGCNMKTATCHCSIHVSK; cysteine pairing not given here; also: lantibiotic nisin-A; UniProt P13068 24-57, looked up, variant M17W) [reference compound]”, the “influence of M17 mutation on antimicrobial activity” value in test [5] is recorded as “reduced activity”.
Consider “nisin(M17I): single-Met nisin mutant M17I, labeled with Met (ITSISLCTPGCKTGALIGCNMKTATCHCSIHVSK; not fully specified (some residues, bridges); cysteine pairing not given here; also: lantibiotic nisin-A, labeled with Met; UniProt P13068 24-57, looked up, variant M17I)”, for which the “influence of M17 mutation on antimicrobial activity” value in test [5] is “reduced activity”.
On to `C#CCC[C@@H]1NC(=O)[C@H](CC(C)C)NC(=O)[C@H](C)NC(=O)CNC(=O)[C@H](NC(=O)[C@H](CCCCN)NC(=O)[C@@H]2CS[C@@H](C)[C@@H](NC(=O)[C@@H]3CSC[C@@H](NC(=O)/C(=C/C)NC(=O)[C@@H](N)[C@@H](C)CC)C(=O)N[C@@H]([C@@H](C)CC)C(=O)NC(=C)C(=O)N[C@@H](CC(C)C)C(=O)N3)C(=O)N3CCC[C@H]3C(=O)NCC(=O)N2)[C@H](C)SC[C@@H](C(=O)N[C@@H](CC(N)=O)C(=O)N[C@H](C(=O)N[C@@H](CCCCN)C(=O)N[C@H]2C(=O)N[C@@H](C)C(=O)N[C@H]3C(=O)N[C@@H](CS[C@H]2C)C(=O)N[C@@H](Cc2c[nH]cn2)C(=O)N[C@H](C(=O)N[C@@H](CO)C(=O)N[C@H](C(=O)N[C@@H](Cc2c[nH]cn2)C(=O)N[C@H](C(=O)NC(=C)C(=O)N[C@@H](CCCCN)C(=O)O)C(C)C)[C@@H](C)CC)CS[C@H]3C)C(C)C)NC(=O)CNC1=O` [nisin(M21V)(Hpg)], for which the MIC in test [1] was determined as 7.6 µg/mL (≈ 2.3 µM); in test [2] it was 15.2 µg/mL (≈ 4.61 µM); in test [3] it was 30.4 µg/mL (≈ 9.21 µM); in the test with Bacillus cereus CH-85 it was 30.4 µg/mL (≈ 9.21 µM). Further, the “decrease in zone of inhibition” value in the test with E. faecium [4] (setting [7]) was found to be 17%.
“nisin(1–22): truncated variant of nisin, bacteriostatic control that only binds lipid II (ITSISLCTPGCKTGALMGCNMK; cysteine pairing not given here; also: lantibiotic nisin-A; UniProt P13068 24-45, looked up, fragment) [reference compound]”: in the test on E. faecium [6], the “bacteriostatic or bactericidal nature” value was “bacteriostatic effect”.
Turning to `C#CCC[C@H](NC(=O)[C@@H]1CS[C@@H](C)[C@@H](NC(=O)[C@@H](NC(=O)[C@@H]2CS[C@@H](C)[C@@H](NC(=O)[C@@H]3CSC[C@@H](NC(=O)/C(=C/C)NC(=O)[C@@H](N)[C@@H](C)CC)C(=O)N[C@@H]([C@@H](C)CC)C(=O)NC(=C)C(=O)N[C@@H](CC(C)C)C(=O)N3)C(=O)N[C@@H](C)C(=O)NCC(=O)N2)[C@@H](C)CC)C(=O)NCC(=O)N[C@@H](C(C)C)C(=O)N[C@@H]([C@@H](C)CC)C(=O)N[C@@H]([C@@H](C)CC)C(=O)N/C(=C\C)C(=O)N1)C(=O)N[C@@H]1CSC[C@@H](C(=O)N[C@@H](CCCCN)C(=O)O)NC(=O)CNC(=O)[C@H](CC(N)=O)NC1=O` [rombocin(M17I)(Hpg)], in the test with E. faecium [4] (setting [7]), the “decrease in zone of inhibition” value was determined as 49%.
Turning to `C#CCC[C@@H]1NC(=O)[C@H]([C@@H](C)CC)NC(=O)[C@H](C(C)C)NC(=O)CNC(=O)[C@H](NC(=O)[C@@H](NC(=O)[C@@H]2CS[C@@H](C)[C@@H](NC(=O)[C@@H]3CSC[C@@H](NC(=O)/C(=C/C)NC(=O)[C@@H](N)[C@@H](C)CC)C(=O)N[C@@H]([C@@H](C)CC)C(=O)NC(=C)C(=O)N[C@@H](CC(C)C)C(=O)N3)C(=O)N[C@@H](C)C(=O)NCC(=O)N2)[C@@H](C)CC)[C@H](C)SC[C@@H](C(=O)N[C@H](C(=O)N[C@@H]2CSC[C@@H](C(=O)N[C@@H](CCCCN)C(=O)O)NC(=O)CNC(=O)[C@H](CC(N)=O)NC2=O)C(C)C)NC(=O)/C(=C/C)NC1=O` [rombocin(M20V)(Hpg)], in the test on E. faecium [4] (setting [7]), the “decrease in zone of inhibition” value amounted to 13%.
On to “nisin(M21V): single-Met nisin mutant M21V, labeled with Met (ITSISLCTPGCKTGALMGCNVKTATCHCSIHVSK; not fully specified (some residues, bridges); cysteine pairing not given here; also: lantibiotic nisin-A, labeled with Met; UniProt P13068 24-57, looked up, variant M21V)”, for which the “antibacterial activity in words” value in the test with E. faecium [4] (agar well diffusion, 30 μL of 1 mg/mL) is on record as “highest antibacterial activity”.
In the case of “nisin(M17I)–Glc (ITSISLCTPGCKTGALIGCN[Hpg′]([triazole-2‑deoxy‑D‑glucose])KTATCHCSIHVSK; not fully specified (some residues, bridges); reading uncertain; also: nisin-A lantibiotic thioether rings and dehydro residues, not placed; UniProt P13068 24-57, looked up, variant M17I)”, the “decrease of activity after glucose attachment” value in the test with E. faecium [4] (compared to the Hpg-labeled peptide, agar well diffusion) worked out at 15%. Also, the “decrease of activity of the glucose conjugate” value with E. faecium [4] (compared to the same peptide labeled with Met, agar well diffusion) is on record as 41%.

These data come from article PMC12455637, “Functionalizing Nisin with a Sugar Moiety Improves Its Solubility and Results in an Altered Antibacterial Spectrum and Mode of Action” (ACS Synthetic Biology, 2025).
